Results published in the METLIN SMRT retention time set (Domingo-Almenara et al. 2019).

Assay: gradient 5% acetonitrile 3 min, to 50% in 2 min, to 85% in 15 min, held 3 min, 100 µL/min
Conditions: column: Zorbax Extend-C18 2.1 x 50 mm; eluents: water / acetonitrile, 0.1% formic acid
Outline: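 Data were gathered over 3 months by HPLC coupled to a quadrupole time-of-flight mass spectrometer, operated in positive and negative ionization mode. Mixtures of ~100 pure standards ran on a Zorbax Extend-C18 column (2.1 × 50 mm, 1.8 μm) at 100 μL/min, with water and acetonitrile each containing 0.1% formic acid and dead and dwell volumes of 40 μL and 900 μL. Retention time was read from adduct peaks picked by computer and checked manually.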

| RP-LC retention time [s] | Structure (SMILES) |
| --- | --- |
| 769 | CC(=O)c1ccc(NC(=O)CCc2c(C)nn(-c3cc(N4CCCC4)ncn3)c2C)cc1 |
| 1030 | CCOc1ccc(CNC(=O)C2CCCN(c3nccnc3Sc3ccccc3)C2)cc1OCC (configuration not stated) |
| 876 | COc1ccc(C2CC(=O)N(c3cccc(Br)c3)C(=O)C2)cc1OC |
| 620 | CC1CN=C2C=C(N3CCN(C(=O)CCc4ccccc4)CC3)N=CN21 (configuration not stated) |
| 684 | O=C1C(c2ccncc2)N(Cc2ccccc2)C(=O)CN1c1ccccc1 (configuration not stated) |
| 756 | CC(C)(C)n1nnnc1C1CC2(CCOCC2)C(=O)N1Cc1ccccc1F (configuration not stated) |
| 1180 | COC(=O)c1ccc2c(=O)n(-c3cc(C)cc(C)c3)c(N3CCSC3)nc2c1 |
| 836 | O=C(C(=O)N1CCc2ccccc2C1)c1c[nH]c2ccccc12 |
| 632 | CCCN(Cc1ccc(OC)c(OC)c1)Cc1cc(=O)n2cc(Cl)ccc2n1 |
| 783 | Cc1noc(C2CN(C(=O)Nc3cccc(Cl)c3F)CC23CCOCC3)n1 (configuration not stated) |
| 637 | Cc1cc(N2CCN(C(=O)c3ccc(F)cc3Cl)CC2)nc(N2CCOCC2)n1 |
| 846 | COc1ccc(-c2noc(Cn3cnc4c(oc5ccccc54)c3=O)n2)cc1OC |
| 846 | Cc1cc(C)cc(NC(=O)CN2C(=O)CC(C)S(=O)(=O)c3ccccc32)c1 (configuration not stated) |
| 1110 | O=c1ccc(-c2ccc(F)cc2)nn1CCc1nc(-c2ccc(Br)cc2)no1 |
| 897 | Cc1nnc(-c2cc(S(=O)(=O)NC3CCCCCCC3)c(C)n2C)o1 |
| 902 | Cc1cccc(NC(=O)N2CCc3c(c(-c4nnc(-c5ccccc5Cl)o4)nn3C)C2)c1 |

| RP-LC retention time [s] | Structure (SMILES) |
| --- | --- |
| 724 | COc1ccc(Cl)cc1NS(=O)(=O)c1cc2n(c1)CCCN(C)C2=O |
| 598 | CCN1CCN(C(=O)c2c(C)sc3ccn(CC(C)C)c(=O)c23)CC1 |
| 709 | Cc1nn(CC(=O)NCC2CCCO2)c(=O)c2nc(-c3ccccc3)sc12 (configuration not stated) |
| 952 | CCCS(=O)(=O)c1nc2ccc(NS(=O)(=O)c3cc(F)cc(F)c3)cc2s1 |
| 680 | Cc1ccn2c(Nc3ccc4c(c3)OCCO4)c(-c3ccc(N4CCOCC4)cc3)nc2c1 |
| 1010 | Cc1cc(C(=O)Nc2ccc3c(c2)N(S(=O)(=O)c2ccc(F)cc2)CCC3)c(C)o1 |
| 619 | O=C(CCc1ccccc1)NC1CCS(=O)(=O)C1 (configuration not stated) |
| 723 | COc1ccc(OC)c(C2CN(C(=O)c3ccc4c(c3)OCO4)CC2C(=O)N2CCCC2)c1 (configuration not stated) |
| 852 | O=c1c2ncccc2n(Cc2c(F)cccc2Cl)c(=O)n1Cc1cccnc1 |
| 1030 | COC(=O)c1ccccc1NC(=O)c1cnc2c(c1)c(=O)n(C)c(=O)n2-c1ccccc1 |
| 912 | CC(C)N1C(=O)C(C)(C(=O)NCc2ccccc2)Oc2cccnc21 (configuration not stated) |
| 945 | Nc1nc(-c2ccc(Cl)cc2)nn1C(=O)C1CC1 |
| 691 | COc1ccc(-c2nc3cc(C)ccn3c2NC(=O)c2ccc([N+](=O)[O-])cc2)cc1 |
| 719 | N#Cc1ccccc1NC(=O)COc1ccc(Cl)cc1Cl |
| 1110 | Cc1ccc(-c2noc(CN3N=NC4C(=O)N(c5ccc(C)c(C)c5)C(=O)C43)n2)cc1 (configuration not stated) |

| Structure (SMILES) | RP-LC retention time [s] |
| --- | --- |
| Fc1cc(F)c2c(c1)C1C=CCC1C(c1cccnc1)N2 (configuration not stated) | 706 |
